Data reported in patent publication US20240309059A1, “PEPTIDE HAVING ANTI-VIRAL ACTIVITY, ANTI-VIRAL AGENT COMPRISING SAID PEPTIDE, AND METHOD FOR PRODUCING SAID ANTI-VIRAL AGENT” (National University Corporation Tokyo Medical and Dental …, priority 2021, published 2024).
pIC50: −log10 of the molar value. Ends that are not written are not given here.

Key:
[1] = solubility to 50 mM HEPES buffer solution (pH 8.0); format: physicochemical; conditions: room temperature
Procedure: In this Example, Ce113, Ce149, Ce172, Ce173 and Ce174 developed in the aforementioned Examples were each dissolved in 50 mM HEPES buffer solution (pH 8.0) and the degrees of solubility of them to 50 mM HEPES buffer solution (pH 8.0) were computationally obtained.
Ce113, Ce149, Ce172, Ce173 and Ce174 having the aforementioned amino acid sequences were chemically synthesized and each dissolved in a 50 mM HEPES buffer solution (pH 8.0). To describe more specifically, the peptides chemically synthesized were each added to the 50 mM HEPES buffer solution (pH 8.0) of 250 μL and stirred by pipetting using a micropipette a sufficient number of times and allowed to stand still at room temperature. When undissolved residue was not present, the peptide was further added and the same operation was repeated. When undissolved residue was present, the sample was allowed to stand still for 10 minutes, stirred by pipetting using a micropipette a sufficient number of times and allowed to stand still at room temperature. The operation of this step was repeated further twice and then concentration was measured by NanoPhotometer NP80 manufactured by IMPLEN to evaluate the degrees of solubility to the 50 mM HEPES buffer solution (pH 8.0).

[2] = target: receptor binding domain (RBD) in wild-type SARS-COV-2 (Severe acute respiratory syndrome coronavirus 2, UniProt P0DTC2); conditions: result in words (binding rate and degree of dissociation)
[3] = solubility to ultra-pure water; format: physicochemical; conditions: room temperature
Procedure: In this Example, Ce4, Ce9, Ce41 and Ce59 developed in the aforementioned Examples were each dissolved in ultra-pure water and the degrees of solubility of them to ultra-pure water were computationally obtained.
Ce4, Ce9, Ce41 and Ce59 having the aforementioned amino acid sequences were chemically synthesized and each dissolved in ultra-pure water. To describe more specifically, the peptides chemically synthesized were each added to ultra-pure water of 250 μL and stirred by pipetting using a micropipette a sufficient number of times and allowed to stand still at room temperature. When undissolved residue was not present, the peptide was further added and the same operation was repeated. When undissolved residue was present, the sample was allowed to stand still for 10 minutes, again stirred by pipetting using a micropipette a sufficient number of times and allowed to stand still at room temperature. After the operation in this step was repeated further twice, concentration was measured by NanoPhotometer NP80 manufactured by IMPLEN to evaluate the degrees of solubility to ultra-pure water.

## DKLWILQKIYEIMQRLDEEGHGEASLMVSDLIYEFMKRD [Ce173]
[1]
  solubility thermodynamic at 30 min: 1500 µM

## CC[C@H](C)[C@H](NC(=O)[C@H](CC(C)C)NC(=O)[C@H](CC(=O)O)NC(=O)[C@H](CO)NC(=O)[C@@H](NC(=O)[C@H](CCCNC(=N)N)NC(=O)[C@H](CCSC)NC(=O)[C@H](CO)NC(=O)[C@H](C)NC(=O)[C@H](CCC(=O)O)NC(=O)[C@H](C)NC(=O)[C@H](Cc1c[nH]cn1)NC(=O)CNC(=O)[C@H](CC(C)C)NC(=O)[C@H](CCC(=O)O)NC(=O)[C@H](CC(=O)O)NC(=O)[C@H](CC(C)C)NC(=O)[C@H](CC(C)C)NC(=O)[C@H](CCCNC(=N)N)NC(=O)[C@H](CCSC)NC(=O)[C@@H](NC(=O)[C@H](CCC(=O)O)NC(=O)[C@H](Cc1ccc(O)cc1)NC(=O)[C@@H](NC(=O)[C@H](CCCCN)NC(=O)[C@H](CCC(N)=O)NC(=O)[C@H](CC(C)C)NC(=O)[C@@H](NC(=O)[C@H](Cc1c[nH]c2ccccc12)NC(=O)[C@H](CCC(=O)O)NC(=O)[C@H](CCCCN)NC(=O)[C@@H](N)CC(=O)O)[C@@H](C)CC)[C@@H](C)CC)[C@@H](C)CC)C(C)C)C(=O)N[C@@H](Cc1ccc(O)cc1)C(=O)N[C@@H](CCC(=O)O)C(=O)N[C@@H](Cc1ccccc1)C(=O)N[C@@H](CCSC)C(=O)N[C@@H](CCCCN)C(=O)N[C@@H](CCCCN)C(=O)NCC(=O)O [Ca1, reference compound]
wild-type SARS-COV-2
  pIC50: 6.97

## DKEWILQKIYEIMQRLDEEGHGEASLMVSDLIYEFMKRD [Ce113]
[1]
  solubility thermodynamic at 30 min: 2500 µM

## DKEWILQKIYEIMRRLDEEGHGEASLRVSDLIYEFMKKD [Ce41]
[2]
  binding activity to the receptor binding domain (RBD): high binding activity
[3]
  solubility: 6.1 mM

## DKEWILYKIYEIMVRLDEEGHGEASLMVSDLIYEFMKRD [Ce149]
[1]
  solubility thermodynamic at 30 min: 1300 µM

## DKEWILQKIYEIMRKLDEDGHAEASMRVSDLIYEFMKKD [Ce4]
[3]
  solubility thermodynamic at 30 min: 4.4 mM

## DKEWILQKIYEIMRRLDEEGHGEASLRVSDLIYEFMKRD [Ce59]
[3]
  solubility thermodynamic at 30 min: 6.1 mM

## DKEWILYKIYEIMQRLDEEGHGEASLMVSDLIYEFMKRD [Ce174]
[1]
  solubility thermodynamic at 30 min: 1600 µM

## DKEWILQKIYEIMRRLDEEGHAEASMRVSDLIYEFMKKD [Ce9]
[3]
  solubility thermodynamic at 30 min: 5.2 mM
wild-type SARS-COV-2
  pIC50: 9.40

## CC[C@H](C)[C@H](NC(=O)[C@H](CC(C)C)NC(=O)[C@H](CC(=O)O)NC(=O)[C@H](CO)NC(=O)[C@@H](NC(=O)[C@H](CCCNC(=N)N)NC(=O)[C@H](CCSC)NC(=O)[C@H](CO)NC(=O)[C@H](C)NC(=O)[C@H](CCC(=O)O)NC(=O)[C@H](C)NC(=O)[C@H](Cc1c[nH]cn1)NC(=O)CNC(=O)[C@H](CC(C)C)NC(=O)[C@H](CCC(=O)O)NC(=O)[C@H](CC(=O)O)NC(=O)[C@H](CC(C)C)NC(=O)[C@H](CC(C)C)NC(=O)[C@H](CCCNC(=N)N)NC(=O)[C@H](CCSC)NC(=O)[C@@H](NC(=O)[C@H](CCC(=O)O)NC(=O)[C@H](Cc1ccc(O)cc1)NC(=O)[C@@H](NC(=O)[C@H](CCCCN)NC(=O)[C@H](CCC(N)=O)NC(=O)[C@H](CC(C)C)NC(=O)[C@@H](NC(=O)[C@H](Cc1c[nH]c2ccccc12)NC(=O)[C@H](CCC(=O)O)NC(=O)[C@H](CCCCN)NC(=O)[C@@H](N)CC(=O)O)[C@@H](C)CC)[C@@H](C)CC)[C@@H](C)CC)C(C)C)C(=O)N[C@@H](Cc1ccc(O)cc1)C(=O)N[C@@H](CCC(=O)O)C(=O)N[C@@H](Cc1ccccc1)C(=O)N[C@@H](CCSC)C(=O)N[C@@H](CCCCN)C(=O)N[C@@H](CCCCN)C(=O)N[C@@H](CC(=O)O)C(=O)O [Ce1]
wild-type SARS-COV-2
  pIC50: 8.82

## DKLWILQKIYEIMVRLDEEGHGEASLMVSDLIYEFMKRD [Ce172]
[1]
  solubility thermodynamic at 30 min: 1100 µM
